Assay: Solubility in water at 25° C.
Type: physicochemical

solubility in water (25° C.): ≤ 0.01 g/100 g-H2O
SMILES: O=C1c2ccccc2C(=O)N1O [N-hydroxyphthalimide]
